Test results from patent publication US4118561A, “7-(Substituted)-7H-pyrrolo[3,2-f]quinazoline-1,3-diamines” (priority 1977, dated 1978).
Values after ≈ are worked out from the molar mass of the structure shown. Read-outs that look alike come from different tables or passages of the source.

Experiments:
[1] = Antimalarial blood schizonticidal test in mice; type: in vivo, Plasmodium berghei (infected ICR/HA Swiss mice); set-up: ΔMST (increase in mean survival time): unit: days; conditions: mouse, in vivo, sc, single dose, read-out: Highest Non-Lethal Dose
In short: (§1)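 Single s.c. doses (peanut oil vehicle, graded levels) given 72 h after i.p. inoculation of young Swiss mice with P. berghei KBG 173 blood (4 × 10^7 parasitized cells). Activity judged by cures (alive at 60 days) or significant mean survival gain over untreated controls, without drug-related deaths.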

[2] = system: Plasmodium berghei KBG 173; assay: Antimalarial blood schizonticidal test in mice; type: in vivo, Plasmodium berghei (infected ICR/HA Swiss mice); set-up: ΔMST (increase in mean survival time): unit: days; conditions: for ED100 / minimal effective dose: Plasmodium berghei, sc; for ED100: read-out: Lowest Dose Curing All Mice; for minimal effective dose: read-out: Min. Curing Dose; for Cure/Treat at Min. Curing Dose: at the Min. Curing Dose
In short: as §1

S. paratyphi 11737 = assay: In vitro antibacterial activity (MIC), S. paratyphi 11737; type: cell-based; conditions: Salmonella enterica, 18 h
S. aureus Smith = assay: In vitro antibacterial activity (MIC), S. aureus Smith; conditions: Staphylococcus aureus, 18 h
[3] = system: lymphocytic leukemia P-388; assay: Activity in mice against lymphocytic leukemia P-388; type: in vivo; conditions: Mus musculus, P388, ip, read-out: T/C
N. catarrhalis 8193 = assay: In vitro antibacterial activity (MIC), N. catarrhalis 8193; conditions: 18 h
K. pneumoniae 10031 = assay: In vitro antibacterial activity (MIC), K. pneumoniae 10031; conditions: Klebsiella pneumoniae, 10031, 18 h
E. coli 9637 = assay: In vitro antibacterial activity (MIC), E. coli 9637; conditions: Escherichia coli, 9637, 18 h
S. aureus 53-180 = assay: In vitro antibacterial activity (MIC), S. aureus 53-180; conditions: Staphylococcus aureus, 53180, 18 h
P. vulgaris 6896 = assay: In vitro antibacterial activity (MIC), P. vulgaris 6896; conditions: Proteus vulgaris, 6896, 18 h
[4] = infected mice, highest dose with no deaths for any reason
[5] = 1440 h, s.c., single dose, 60-day survivors
[6] = alive on day 14 considered cured, no 60-day data
[7] = 336 h, s.c., single dose, alive on day 14 considered cured, no 60-day data
[8] = s.c., alive on day 14 considered cured

Row | Compound | MTD [1, 4] [mg/kg] | ED100 [2, 5] [mg/kg] | minimal effective dose [2, 5] [mg/kg] | Cure/Treat at Min. Curing Dose ([2]; s.c., 60-day survivors) | MIC (S. paratyphi 11737) [µg/mL] | MIC (S. aureus Smith) [µg/mL] | response vs control in vivo at 10 mg/kg ([3]; mice, I.P., 10 mg/kg) [%] | MIC (N. catarrhalis 8193) [µg/mL] | MIC (K. pneumoniae 10031) [µg/mL] | MIC (E. coli 9637) [µg/mL] | MIC (S. aureus 53-180) [µg/mL] | MIC (P. vulgaris 6896) [µg/mL] | further results
1 | CCOC(=O)c1ccc(Cn2ccc3c4c(N)nc(N)nc4ccc32)cc1 [Example 17] | 80 | 20 | 10 | 1/5 | > 250 | 1.95 (≈ 5.4 µM) | 141 | 0.488 (≈ 1.35 µM) | 1.95 (≈ 5.4 µM) | 7.81 (≈ 21.6 µM) | 1.95 (≈ 5.4 µM) | > 250 | ΔMST (increase in mean survival time) ([2]; s.c., dose 2.5 mg. per kg.): 6.0
2 | Nc1nc(N)c2c(ccc3c2ccn3Cc2cccc([N+](=O)[O-])c2)n1 [Example 18, 7-[(3-nitrophenyl)methyl]-7H-pyrrolo[3,2-f]quinazoline-1,3-diamine] | 40 | 10 | 2.5 | 3/5 | 0.976 (≈ 2.92 µM) | 0.122 (≈ 0.365 µM) | – | 0.0152 (≈ 0.0455 µM) | 0.122 (≈ 0.365 µM) | 0.488 (≈ 1.46 µM) | 0.061 (≈ 0.182 µM) | 3.9 (≈ 11.7 µM) | ΔMST (increase in mean survival time) ([2]; s.c., dose 2.5 mg. per kg.): 7.4; response vs control in vivo at 5 mg/kg ([3]; mice, I.P.): 163%
3 | Cc1ccc(Cn2ccc3c4c(N)nc(N)nc4ccc32)cc1 [Example 21] | 160 | 20 | 10 | 2/5 | 1.95 (≈ 6.43 µM) | 0.976 (≈ 3.22 µM) | – | 0.0152 (≈ 0.0501 µM) | 0.122 (≈ 0.402 µM) | 0.976 (≈ 3.22 µM) | 0.488 (≈ 1.61 µM) | 1.95 (≈ 6.43 µM) | ΔMST (increase in mean survival time) ([2]; s.c., dose 5 mg. per kg.): 7.5; response vs control in vivo at 10 mg/kg [3]: 138%
4 | Cc1ccc(Cn2ccc3c4c(N)nc(N)nc4ccc32)cc1C [Example 25] | – | – | – | – | 31.3 (≈ 98.6 µM) | 1.95 (≈ 6.14 µM) | 139 | 0.122 (≈ 0.384 µM) | 0.488 (≈ 1.54 µM) | 1.95 (≈ 6.14 µM) | 0.976 (≈ 3.08 µM) | 62.5 (≈ 197 µM) | MTD [1, 6]: 80 mg/kg; ED100 [2, 7]: 10 mg/kg; minimal effective dose [2, 7]: 5 mg/kg; Cure/Treat at Min. Curing Dose [2, 8]: 2/5; ΔMST (increase in mean survival time) ([2]; s.c., dose 2.5 mg. per kg., alive on day 14 considered cured, no 60-day data): 6.5
5 | CC(C)(C)c1ccc(Cn2ccc3c4c(N)nc(N)nc4ccc32)cc1 [Example 30] | – | – | – | – | > 250 | 7.81 (≈ 22.6 µM) | – | 0.976 (≈ 2.83 µM) | 3.9 (≈ 11.3 µM) | 250 (≈ 724 µM) | 3.9 (≈ 11.3 µM) | > 250 | response vs control in vivo at 5 mg/kg ([3]; mice, I.P.): 125%
6 | COc1ccc(Cn2ccc3c4c(N)nc(N)nc4ccc32)cc1OC [Example 37] | 80 | 20 | 10 | 1/5 | 1.95 (≈ 5.58 µM) | 0.244 (≈ 0.698 µM) | 174 | 0.0152 (≈ 0.0435 µM) | 0.061 (≈ 0.175 µM) | 0.488 (≈ 1.4 µM) | 0.122 (≈ 0.349 µM) | 1.95 (≈ 5.58 µM) | ΔMST (increase in mean survival time) ([2]; s.c., dose 2.5 mg. per kg.): 6.9
7 | COc1cc(Cn2ccc3c4c(N)nc(N)nc4ccc32)cc(OC)c1OC [Example 39] | 160 | – | – | 2/5 | 3.9 (≈ 10.3 µM) | 0.122 (≈ 0.322 µM) | – | 0.0152 (≈ 0.0401 µM) | 0.122 (≈ 0.322 µM) | 0.976 (≈ 2.57 µM) | 0.061 (≈ 0.161 µM) | 7.81 (≈ 20.6 µM) | ED100 ([2]; 1440 h): 160 mg/kg; minimal effective dose ([2]; 1440 h): 40 mg/kg; ΔMST (increase in mean survival time) ([2]; s.c., dose 20 mg. per kg.): 7.1; response vs control in vivo at 10 mg/kg [3]: 163%
8 | Nc1nc(N)c2c(ccc3c2ccn3Cc2ccsc2)n1 [Example 41] | – | – | – | – | 0.976 (≈ 3.3 µM) | 0.976 (≈ 3.3 µM) | 147 | 0.0152 (≈ 0.0515 µM) | 0.061 (≈ 0.207 µM) | 0.244 (≈ 0.826 µM) | 0.976 (≈ 3.3 µM) | 1.95 (≈ 6.6 µM) | MTD [1, 6]: 320 mg/kg; ED100 [2, 7]: 160 mg/kg; minimal effective dose [2, 7]: 20 mg/kg; Cure/Treat at Min. Curing Dose [2, 8]: 3/5
9 | Nc1nc(N)c2c(ccc3c2ccn3Cc2ccccn2)n1 [Example 43] | 80 | 80 | 20 | 2/5 | 0.244 (≈ 0.84 µM) | 0.976 (≈ 3.36 µM) | – | < 0.0009 | 0.061 (≈ 0.21 µM) | 0.488 (≈ 1.68 µM) | 0.488 (≈ 1.68 µM) | 0.244 (≈ 0.84 µM) | ΔMST (increase in mean survival time) ([2]; s.c., dose 20 mg. per kg.): 11.6; response vs control in vivo at 20 mg/kg [3]: 146%
10 | Nc1nc(N)c2c(ccc3c2ccn3Cc2ccncc2)n1 [Example 45] | – | – | 80 | 3/5 | 0.488 (≈ 1.68 µM) | 0.122 (≈ 0.42 µM) | – | 0.0038 (≈ 0.0131 µM) | 0.122 (≈ 0.42 µM) | 0.244 (≈ 0.84 µM) | 0.122 (≈ 0.42 µM) | 0.488 (≈ 1.68 µM) | ΔMST (increase in mean survival time) ([2]; s.c., dose 40 mg. per kg.): 9.7; response vs control in vivo at 15 mg/kg ([3]; mice, I.P., 15 mg/kg): 142%
11 | Nc1nc(N)c2c(ccc3c2ccn3Cc2ccc3ccccc3n2)n1 [Example 50] | 160 | 5 | 1.25 | 2/5 | 7.81 (≈ 22.9 µM) | 0.976 (≈ 2.87 µM) | 145 | 0.0038 (≈ 0.0112 µM) | 0.122 (≈ 0.358 µM) | 7.81 (≈ 22.9 µM) | 0.488 (≈ 1.43 µM) | 7.81 (≈ 22.9 µM) | ΔMST (increase in mean survival time) ([2]; s.c., dose 1.25 mg. per kg.): 6.9
12 | Nc1cccc(Cn2ccc3c4c(N)nc(N)nc4ccc32)c1 [Example 62, 7-[(3-Aminophenyl)methyl]-7H-pyrrolo[3,2-f]quinazoline-1,3-diamine] | 80 | 20 | 5 | 3/5 | 0.976 (≈ 3.21 µM) | 0.488 (≈ 1.6 µM) | 165 | 0.061 (≈ 0.2 µM) | 0.122 (≈ 0.401 µM) | 0.244 (≈ 0.802 µM) | 0.244 (≈ 0.802 µM) | 1.95 (≈ 6.41 µM) | ΔMST (increase in mean survival time) ([2]; s.c., dose 1.25 mg. per kg.): 7.8
13 | CS(=O)(=O)c1ccc(Cn2ccc3c4c(N)nc(N)nc4ccc32)cc1 [Example 63, 7-[(4-Methylsulfonylphenyl)methyl]-7H-pyrrolo[3,2-f]quinazoline-1,3-diamine] | – | – | 10 | 1/5 | 0.976 (≈ 2.66 µM) | 0.122 (≈ 0.332 µM) | 136 | 0.0152 (≈ 0.0414 µM) | 0.122 (≈ 0.332 µM) | 0.976 (≈ 2.66 µM) | 0.122 (≈ 0.332 µM) | 7.81 (≈ 21.3 µM) | ΔMST (increase in mean survival time) ([2]; s.c., dose 5 mg. per kg.): 6.5
14 | Cc1cc(-n2ccc3c4c(N)nc(N)nc4ccc32)ccc1[N+](=O)[O-] [Example 80] | 640 | 640 | 640 | 5/5 | > 250 | 62.5 (≈ 187 µM) | – | 0.0152 (≈ 0.0455 µM) | 0.976 (≈ 2.92 µM) | > 250 | 7.81 (≈ 23.4 µM) | > 250 | ΔMST (increase in mean survival time) ([2]; s.c., dose 160 mg. per kg.): 13.9
15 | Cc1ccc(C)c(Cn2c(C)cc3c4c(N)nc(N)nc4ccc32)c1 [Example 103] | – | – | – | – | > 250 | 31.3 (≈ 94.4 µM) | – | 1.95 (≈ 5.88 µM) | 15.6 (≈ 47.1 µM) | 250 (≈ 754 µM) | 7.81 (≈ 23.6 µM) | > 250 | MTD [1, 6]: 80 mg/kg; ED100 [2, 7]: 5 mg/kg; minimal effective dose [2, 7]: 1.25 mg/kg; Cure/Treat at Min. Curing Dose [2, 8]: 1/5; ΔMST (increase in mean survival time) ([2]; s.c., dose 1.25 mg. per kg., alive on day 14 considered cured, no 60-day data): 6.8
